# Measurements published in BindingDB's records for doi:10.1021/jm801420y (St. Jude Children'S Research Hospital, 2009).
# Biological target: Sonic hedgehog protein (Homo sapiens, UniProt Q15465)
# Test: Inhibition of lipid-modified (octylated) form of SHH expressed in mouse s12 cells by luciferase reporter gene assay
# Sonic hedgehog protein (Homo sapiens, UniProt Q15465), sequence (Q15465 24-197 limits assumed): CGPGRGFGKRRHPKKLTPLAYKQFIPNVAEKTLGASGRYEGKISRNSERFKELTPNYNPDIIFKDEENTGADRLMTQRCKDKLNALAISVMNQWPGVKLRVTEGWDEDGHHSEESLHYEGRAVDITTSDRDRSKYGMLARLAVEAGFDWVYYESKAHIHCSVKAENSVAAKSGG
row,Structure (SMILES),IC50
1,"CC1=C2C(=O)[C@H]3[C@@H](CC=C4C[C@@H](O)CC[C@@]43C)[C@@H]2CC[C@]12O[C@@H]1C[C@H](C)CN[C@H]1[C@H]2C [5'-hydroxy-2',3,6,15'-tetramethyl-(1'S,2'R,2'R,3R,3aS,5'S,6S,7aR,10'S,11'S)-spiro[perhydrofuro[3,2-b]pyridine-2,14'-tetracyclo[8.7.0.02,7.011,16]heptadeca-7',15'-diene]-17'-one]",500 nM
2,"COc1cccc(CN(C(=O)CC(C)(C)C)[C@H]2C[C@@H](C(=O)N3CCNCC3)N(Cc3ccc4c(c3)OCO4)C2)c1 [N-((3S,5S)-1-(benzo[d][1,3]dioxol-5-ylmethyl)-5-(piperazine-1-carbonyl)pyrrolidin-3-yl)-N-(3-methoxybenzyl)-3,3-dimethylbutanamide]",100 nM

# Biological target: Zinc finger protein GLI2 (Homo sapiens, UniProt P10070)
# Sequence (P10070 whole entry): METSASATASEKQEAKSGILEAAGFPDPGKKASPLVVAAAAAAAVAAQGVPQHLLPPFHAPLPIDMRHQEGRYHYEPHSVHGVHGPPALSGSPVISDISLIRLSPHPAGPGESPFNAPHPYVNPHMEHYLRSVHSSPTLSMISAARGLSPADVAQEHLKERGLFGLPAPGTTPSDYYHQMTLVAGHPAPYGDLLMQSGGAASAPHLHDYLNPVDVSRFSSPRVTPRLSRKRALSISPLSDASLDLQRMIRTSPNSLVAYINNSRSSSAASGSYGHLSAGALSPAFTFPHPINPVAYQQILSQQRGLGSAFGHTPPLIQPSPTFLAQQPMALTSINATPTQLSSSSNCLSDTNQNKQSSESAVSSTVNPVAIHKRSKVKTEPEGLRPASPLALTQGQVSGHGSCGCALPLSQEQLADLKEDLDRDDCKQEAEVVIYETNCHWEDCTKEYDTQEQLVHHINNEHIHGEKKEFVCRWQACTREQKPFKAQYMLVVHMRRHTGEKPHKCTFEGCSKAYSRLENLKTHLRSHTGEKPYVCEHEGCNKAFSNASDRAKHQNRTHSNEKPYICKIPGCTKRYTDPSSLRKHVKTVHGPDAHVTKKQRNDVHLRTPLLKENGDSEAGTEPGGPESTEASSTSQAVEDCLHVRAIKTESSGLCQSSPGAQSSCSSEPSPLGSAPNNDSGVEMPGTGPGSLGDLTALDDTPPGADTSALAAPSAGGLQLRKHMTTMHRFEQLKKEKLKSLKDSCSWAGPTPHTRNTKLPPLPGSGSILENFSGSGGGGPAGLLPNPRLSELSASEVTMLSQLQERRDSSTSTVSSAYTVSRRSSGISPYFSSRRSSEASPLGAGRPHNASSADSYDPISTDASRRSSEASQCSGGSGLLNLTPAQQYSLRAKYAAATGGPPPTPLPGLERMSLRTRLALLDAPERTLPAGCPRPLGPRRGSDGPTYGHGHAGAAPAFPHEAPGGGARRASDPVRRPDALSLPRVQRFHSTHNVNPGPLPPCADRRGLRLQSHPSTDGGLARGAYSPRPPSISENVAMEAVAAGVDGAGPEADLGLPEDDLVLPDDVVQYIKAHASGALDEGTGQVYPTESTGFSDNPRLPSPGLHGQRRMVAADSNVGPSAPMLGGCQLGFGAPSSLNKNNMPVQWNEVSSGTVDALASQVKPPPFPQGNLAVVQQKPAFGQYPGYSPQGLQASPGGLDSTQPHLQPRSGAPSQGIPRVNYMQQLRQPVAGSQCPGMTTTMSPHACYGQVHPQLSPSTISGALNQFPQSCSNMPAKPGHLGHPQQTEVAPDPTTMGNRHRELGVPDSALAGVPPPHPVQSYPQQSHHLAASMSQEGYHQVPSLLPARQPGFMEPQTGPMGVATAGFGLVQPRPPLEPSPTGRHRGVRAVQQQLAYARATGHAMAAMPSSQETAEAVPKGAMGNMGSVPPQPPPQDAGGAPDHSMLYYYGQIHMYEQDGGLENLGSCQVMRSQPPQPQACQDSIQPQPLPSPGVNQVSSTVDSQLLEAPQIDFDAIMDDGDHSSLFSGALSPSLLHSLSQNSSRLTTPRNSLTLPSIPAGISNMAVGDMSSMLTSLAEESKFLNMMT
# Test: Inhibition of Gli2-mediated transcription expressed in human PANC1 cells
row,Structure (SMILES),IC50
1,C/C1=C\CC(C)(C)/C=C/C(=O)/C(C)=C/CC1 [Zerumbone],910 nM
2,O=C1NCc2c1c1c3ccccc3[nH]c1c1[nH]c3ccccc3c21,2700 nM

# Biological target: Sonic hedgehog protein (Mus musculus, UniProt Q62226)
# Sequence (Q62226 25-198 limits assumed): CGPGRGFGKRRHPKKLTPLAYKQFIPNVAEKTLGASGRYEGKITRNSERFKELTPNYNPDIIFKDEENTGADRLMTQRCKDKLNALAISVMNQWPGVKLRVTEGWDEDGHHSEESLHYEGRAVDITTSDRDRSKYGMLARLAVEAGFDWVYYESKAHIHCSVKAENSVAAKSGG
# Test: Inhibition of SHH in mouse Shh Light2 cells by GLI-responsive firefly luciferase reporter gene assay
Structure (SMILES),IC50,EC50
"CN(C)c1ccccc1CN1CCCN(Cc2ccccc2N(C)C)C1c1ccncc1 [2-((3-(2-(dimethylamino)benzyl)-2-(pyridin-4-yl)-tetrahydropyrimidin-1(2H)-yl)methyl)-N,N-dimethylbenzenamine]",5000 nM,–
"CCOc1ccc(Nc2nc(-c3c(C)nc4ccccn34)cs2)cc1 [N-(4-ethoxyphenyl)-4-(2-methylimidazo[1,2-a]pyridin-3-yl)thiazol-2-amine]",30 nM,–
COc1ccc(Cl)cc1Nc1nc(-c2cccnc2)cs1 [N-(5-chloro-2-methoxyphenyl)-4-(pyridin-3-yl)thiazol-2-amine],100 nM,–
"Cc1nc2ccccn2c1-c1csc(NC(=O)c2ccc3ccccc3c2)n1 [N-(4-(2-methylimidazo[1,2-a]pyridin-3-yl)thiazol-2-yl)-2-naphthamide]",100 nM,–
"COc1cc(OC)cc(C(=O)Nc2ccc(Cl)c(-c3nc4ccc(N(C)C)cc4[nH]3)c2)c1 [N-(4-chloro-3-(5-(dimethylamino)-1H-benzo[d]imidazol-2-yl)phenyl)-3,5-dimethoxybenzamide]",–,40 nM
CC1=C2C[C@H]3[C@@H](CC=C4C[C@@H](O)CC[C@@]43C)[C@@H]2CC[C@]12O[C@@H]1C[C@H](C)CN[C@H]1[C@H]2C,–,500 nM
CC(=O)c1cccc(Nc2nc(-c3ccccc3)cs2)c1 [1-(3-(4-phenylthiazol-2-ylamino)phenyl)ethanone],100 nM,–
"c1cc(-c2sc(-c3ccncc3)c(-c3ccncc3)c2-c2ccncc2)ccn1 [4-(3,4,5-tri(pyridin-4-yl)thiophen-2-yl)pyridine]",5000 nM,–
CS(=O)(=O)c1ccc(C(=O)Nc2ccc(Cl)c(-c3ccccn3)c2)c(Cl)c1 [2-chloro-N-(4-chloro-3-(pyridin-2-yl)phenyl)-4-(methylsulfonyl)benzamide],3 nM,–

# Biological target: T1, Zinc finger protein GLI1 (Homo sapiens, UniProt P08151)
# T1 sequence (P08151 whole entry): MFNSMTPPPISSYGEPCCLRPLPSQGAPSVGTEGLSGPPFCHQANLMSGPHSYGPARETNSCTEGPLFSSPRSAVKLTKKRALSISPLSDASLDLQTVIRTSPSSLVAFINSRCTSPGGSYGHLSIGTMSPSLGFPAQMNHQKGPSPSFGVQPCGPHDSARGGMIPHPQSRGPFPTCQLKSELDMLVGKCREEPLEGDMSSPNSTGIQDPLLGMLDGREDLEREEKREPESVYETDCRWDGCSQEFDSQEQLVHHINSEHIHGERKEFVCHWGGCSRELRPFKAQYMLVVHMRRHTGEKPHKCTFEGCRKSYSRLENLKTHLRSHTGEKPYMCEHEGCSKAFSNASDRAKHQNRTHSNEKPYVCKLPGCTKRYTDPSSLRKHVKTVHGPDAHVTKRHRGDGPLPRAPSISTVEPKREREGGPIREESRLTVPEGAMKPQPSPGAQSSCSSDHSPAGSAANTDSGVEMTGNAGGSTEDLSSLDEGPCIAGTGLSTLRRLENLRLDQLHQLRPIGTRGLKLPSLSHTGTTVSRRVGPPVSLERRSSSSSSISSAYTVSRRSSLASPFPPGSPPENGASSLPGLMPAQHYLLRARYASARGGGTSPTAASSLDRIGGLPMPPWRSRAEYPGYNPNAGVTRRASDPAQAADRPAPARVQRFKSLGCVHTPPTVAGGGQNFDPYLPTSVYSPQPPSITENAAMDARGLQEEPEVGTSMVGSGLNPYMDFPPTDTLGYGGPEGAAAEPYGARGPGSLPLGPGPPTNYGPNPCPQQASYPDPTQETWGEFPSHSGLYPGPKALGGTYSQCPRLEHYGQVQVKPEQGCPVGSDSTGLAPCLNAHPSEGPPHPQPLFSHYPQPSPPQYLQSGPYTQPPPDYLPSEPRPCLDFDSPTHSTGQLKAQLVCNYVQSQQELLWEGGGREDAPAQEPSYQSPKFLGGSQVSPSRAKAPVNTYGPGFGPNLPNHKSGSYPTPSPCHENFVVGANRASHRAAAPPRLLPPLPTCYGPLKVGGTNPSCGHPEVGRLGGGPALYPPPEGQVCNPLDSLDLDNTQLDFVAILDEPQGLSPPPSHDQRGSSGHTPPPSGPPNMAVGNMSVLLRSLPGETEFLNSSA
# Test: Inhibition of Gli1-mediated transcription expressed in human PANC1 cells
row,Structure (SMILES),IC50
1,C/C1=C\CC(C)(C)/C=C/C(=O)/C(C)=C/CC1 [Zerumbone],7100 nM
2,C[C@@]12C[C@H]3OC(=O)[C@@H]1CO[C@]14O[C@]5([C@H]2C1=O)[C@@](O)(CC[C@H]1[C@H]4C[C@H]2O[C@]24CC=CC(=O)[C@]14C)C(=O)O[C@@]35C [PHYSALIN F],660 nM
3,C[C@]12C(=O)C=CCC1=CC[C@@H]1[C@@H]2CC[C@]2(O)C(=O)O[C@@]3(C)[C@H]4C[C@]5(C)[C@@H](CO[C@@]16O[C@@]32[C@H]5C6=O)C(=O)O4 [NSC-287088],620 nM
4,O=C1NCc2c1c1c3ccccc3[nH]c1c1[nH]c3ccccc3c21,1800 nM

# Biological target: not listed separately
# Test: Inhibition of SHH-mediated mouse C3H10T1/2 cells differentiation into osteoblasts by alkaline phosphatase assay
row,Structure (SMILES),IC50
1,"CN1CCCc2ccc(NC(=O)c3ccc(Nc4nc(-c5ccccc5)c5ccccc5n4)cc3)cc21 [N-(1-methyl-1,2,3,4-tetrahydroquinolin-7-yl)-4-(4-phenylquinazolin-2-ylamino)benzamide]",5.8 nM
2,"Cc1nn(-c2ccccc2)c(C)c1C=NN1CCN(Cc2ccccc2)CC1 [4-benzyl-N-((3,5-dimethyl-1-phenyl-1H-pyrazol-4-yl)methylene)piperazin-1-amine]",< 20 nM
3,"CCOc1cc(C(=O)Nc2ccc(Cl)c(-c3nc4ccccc4[nH]3)c2)cc(OCC)c1OCC [N-(3-(1H-Benzo[d]imidazol-2-yl)-4-chlorophenyl)-3,4,5-triethoxybenzamide]",30 nM
4,"Cc1cccc(C)c1NC(=O)c1ccc(Nc2nc(-c3ccccc3)c3cccnc3n2)cc1 [N-(2,6-dimethylphenyl)-4-(4-phenylpyrido[2,3-d]pyrimidin-2-ylamino)benzamide]",3.6 nM
5,CCCCCc1ccc(-c2ccc(/C=C/C(=O)N3CCCCC3)cc2)nc1 [(E)-3-(4-(5-pentylpyridin-2-yl)phenyl)-1-(piperidin-1-yl)prop-2-en-1-one],200 nM
6,"Cc1cccc(C)c1NC(=O)c1ccc(Nc2nc(C3CC3)c3ccccc3n2)cc1 [4-(4-cyclopropylquinazolin-2-ylamino)-N-(2,6-dimethylphenyl)benzamide]",2.8 nM
7,COc1ccc(-c2cc(C3CC3)nc(SCC(C)=O)c2C#N)cc1 [6-cyclopropyl-4-(4-methoxyphenyl)-2-(2-oxopropylthio)nicotinonitrile],< 100 nM
